Measurements from the supplement of paper PMC10307832.

Columns and labels:
Experiment in all cases: relative viability (nuclei count vs DMSO), 5 days (fraction); higher = more cells survive
PC-14 = tested on: PC-14
How it was run: (§1)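 Five library-drug doses in √10 steps were combined with a fixed anchor-drug dose, or a single drug was given alone, by pin tool to lung cancer cell lines in 1536-well plates the day after seeding. Nuclei were stained and counted after 5 days. Relative viability is the nuclei count in treated wells over that in vehicle wells, taken as the median of duplicate plates.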

SK-MES-1 = tested on: SK-MES-1
How it was run: as §1

NCI-H2087 = tested on: NCI-H2087
How it was run: as §1

NCI-H596 = tested on: NCI-H596
How it was run: as §1

ChaGo-K-1 = tested on: ChaGo-K-1
How it was run: as §1

H3255 = tested on: H3255
How it was run: as §1

NCI-H1755 = tested on: NCI-H1755
How it was run: as §1

EMC-BAC-2 = tested on: EMC-BAC-2
How it was run: as §1

201T = tested on: 201T
How it was run: as §1

NCI-H2126 = tested on: NCI-H2126
How it was run: as §1

NCI-H322M = tested on: NCI-H322M
How it was run: as §1

NCI-H2009 = tested on: NCI-H2009
How it was run: as §1

ABC-1 = tested on: ABC-1
How it was run: as §1

LXF-289 = tested on: LXF-289
How it was run: as §1

HOP-62 = tested on: HOP-62
How it was run: as §1

NCI-H3122 = tested on: NCI-H3122
How it was run: as §1

CAL-12T = tested on: CAL-12T
How it was run: as §1

NCI-H1651 = tested on: NCI-H1651
How it was run: as §1

LK-2 = tested on: LK-2
How it was run: as §1

NCI-H441 = tested on: NCI-H441
How it was run: as §1

NCI-H1734 = tested on: NCI-H1734
How it was run: as §1

NCI-H2170 = tested on: NCI-H2170
How it was run: as §1

NCI-H647 = tested on: NCI-H647
How it was run: as §1

For `Cc1cnc(-c2cnc(NCCNc3ccc(C#N)cn3)nc2-c2ccc(Cl)cc2Cl)[nH]1` + N=C(N)NC(=N)NCCc1ccccc1 [Phenformin] (partner 250 µM), the relative viability (PC-14; first compound 0.08 µM) was 0.586, the relative viability (PC-14; first compound 0.253 µM) was 0.413 and the relative viability (PC-14; first compound 0.8 µM) was 0.568. It also gave a relative viability (PC-14; first compound 2.53 µM) of 0.421, a relative viability (SK-MES-1; first compound 0.08 µM) of 0.643 and a relative viability (SK-MES-1; first compound 0.253 µM) of 0.648. For the same molecule, the relative viability (SK-MES-1; first compound 0.8 µM) was 0.72, the relative viability (SK-MES-1; first compound 2.53 µM) was 0.584 and the relative viability (NCI-H2087; first compound 0.08 µM) was 0.571. For the same molecule, the relative viability (NCI-H2087; first compound 0.253 µM) was 0.379, the relative viability (NCI-H2087; first compound 0.8 µM) was 0.442 and the relative viability (NCI-H2087; first compound 2.53 µM) was 0.329. It also gave a relative viability (NCI-H596; first compound 0.08 µM) of 0.834, a relative viability (NCI-H596; first compound 0.253 µM) of 0.763 and a relative viability (NCI-H596; first compound 0.8 µM) of 0.595. The relative viability (NCI-H596; first compound 2.53 µM) was 0.761, the relative viability (ChaGo-K-1; first compound 0.08 µM) was 0.493 and the relative viability (ChaGo-K-1; first compound 0.253 µM) was 0.375. It also gave a relative viability (ChaGo-K-1; first compound 0.8 µM) of 0.44, a relative viability (ChaGo-K-1; first compound 2.53 µM) of 0.413 and a relative viability (H3255; first compound 0.08 µM) of 0.409. For the same molecule, the relative viability (H3255; first compound 0.253 µM) was 0.342, the relative viability (H3255; first compound 0.8 µM) was 0.317 and the relative viability (H3255; first compound 2.53 µM) was 0.349. For the same molecule, the relative viability (NCI-H1755; first compound 0.08 µM) was 0.633, the relative viability (NCI-H1755; first compound 0.253 µM) was 0.604 and the relative viability (NCI-H1755; first compound 0.8 µM) was 0.634. For the same molecule, the relative viability (NCI-H1755; first compound 2.53 µM) was 0.572, the relative viability (EMC-BAC-2; first compound 0.08 µM) was 0.578 and the relative viability (EMC-BAC-2; first compound 0.253 µM) was 0.507. It also gave a relative viability (EMC-BAC-2; first compound 0.8 µM) of 0.542, a relative viability (EMC-BAC-2; first compound 2.53 µM) of 0.467 and a relative viability (201T; first compound 0.08 µM) of 0.469. The relative viability (201T; first compound 0.8 µM) was 0.397, the relative viability (201T; first compound 2.53 µM) was 0.473 and the relative viability (NCI-H2126; first compound 0.08 µM) was 0.526. It also gave a relative viability (NCI-H2126; first compound 0.253 µM) of 0.533, a relative viability (NCI-H2126; first compound 0.8 µM) of 0.506 and a relative viability (NCI-H2126; first compound 2.53 µM) of 0.567. The relative viability (NCI-H322M; first compound 0.08 µM) was 0.815, the relative viability (NCI-H322M; first compound 0.253 µM) was 0.725 and the relative viability (NCI-H322M; first compound 0.8 µM) was 0.753. For the same molecule, the relative viability (NCI-H322M; first compound 2.53 µM) was 0.931, the relative viability (NCI-H2009; first compound 0.08 µM) was 0.499 and the relative viability (NCI-H2009; first compound 0.253 µM) was 0.442. It also gave a relative viability (NCI-H2009; first compound 0.8 µM) of 0.489, a relative viability (NCI-H2009; first compound 2.53 µM) of 0.271 and a relative viability (ABC-1; first compound 0.08 µM) of 0.259. It also gave a relative viability (ABC-1; first compound 0.253 µM) of 0.246, a relative viability (ABC-1; first compound 0.8 µM) of 0.271 and a relative viability (ABC-1; first compound 2.53 µM) of 0.195. It also gave a relative viability (LXF-289; first compound 0.08 µM) of 0.508, a relative viability (LXF-289; first compound 0.253 µM) of 0.482 and a relative viability (LXF-289; first compound 0.8 µM) of 0.536. The relative viability (LXF-289; first compound 2.53 µM) was 0.503, the relative viability (HOP-62; first compound 0.08 µM) was 0.754 and the relative viability (HOP-62; first compound 0.253 µM) was 0.596. The relative viability (HOP-62; first compound 0.8 µM) was 0.685, the relative viability (HOP-62; first compound 2.53 µM) was 0.427 and the relative viability (NCI-H3122; first compound 0.08 µM) was 0.367. It also gave a relative viability (NCI-H3122; first compound 0.8 µM) of 0.383, a relative viability (NCI-H3122; first compound 2.53 µM) of 0.327 and a relative viability (CAL-12T; first compound 0.08 µM) of 0.655. The relative viability (CAL-12T; first compound 0.253 µM) was 0.511, the relative viability (CAL-12T; first compound 0.8 µM) was 0.597 and the relative viability (CAL-12T; first compound 2.53 µM) was 0.579. It also gave a relative viability (NCI-H1651; first compound 0.08 µM) of 0.383, a relative viability (NCI-H1651; first compound 0.253 µM) of 0.494 and a relative viability (NCI-H1651; first compound 0.8 µM) of 0.32. The relative viability (NCI-H1651; first compound 2.53 µM) was 0.324, the relative viability (LK-2; first compound 0.08 µM) was 0.549 and the relative viability (LK-2; first compound 0.253 µM) was 0.501. The relative viability (LK-2; first compound 0.8 µM) was 0.379, the relative viability (LK-2; first compound 2.53 µM) was 0.641 and the relative viability (NCI-H441; first compound 0.08 µM) was 0.841. It also gave a relative viability (NCI-H441; first compound 0.253 µM) of 0.756, a relative viability (NCI-H441; first compound 0.8 µM) of 0.714 and a relative viability (NCI-H441; first compound 2.53 µM) of 0.864. For the same molecule, the relative viability (NCI-H1734; first compound 0.08 µM) was 0.49, the relative viability (NCI-H1734; first compound 0.253 µM) was 0.379 and the relative viability (NCI-H1734; first compound 0.8 µM) was 0.391. The relative viability (NCI-H1734; first compound 2.53 µM) was 0.355, the relative viability (NCI-H2170; first compound 0.08 µM) was 0.422 and the relative viability (NCI-H2170; first compound 0.253 µM) was 0.351. The relative viability (NCI-H2170; first compound 0.8 µM) was 0.412, the relative viability (NCI-H2170; first compound 2.53 µM) was 0.348 and the relative viability (NCI-H647; first compound 0.08 µM) was 0.598. The relative viability (NCI-H647; first compound 0.253 µM) was 0.362, the relative viability (NCI-H647; first compound 0.8 µM) was 0.391 and the relative viability (NCI-H647; first compound 2.53 µM) was 0.28.
